Assay results: EP4606801A1, “FUSED HETEROCYCLIC COMPOUND AND USE THEREOF” (Chengdu Zenitar Biomedical Technology Co., Ltd., priority 2022, dated 2024)

Columns and labels:
breast cancer MDA-MB-436 [1] = experiment: In-vivo pharmacodynamic study on subcutaneous xenograft tumor model of breast cancer MDA-MB-436; set-up: species or system NOD/SCID mice; conditions: for RTV / Tumor volume T/C% / Tumor weight (g) X±SD / Body weight (g) X±SD End / Tumor volume (mm^3) X±SD End: 24 days
Procedure: Strain: NOD/SCID; Grade: SPF; Source: Beijing Vitron River Bio-technology Co., Ltd.
The cells were washed 3 times with pre-cooled PBS, centrifuged at 300 g for 10 min, collected, re-suspended in PBS, and counted with a blood cell counting chamber, and the cell concentration was adjusted. After cell collection, the cell suspension was pre-cooled on ice. 100 µL of the cell suspension was administered via subcutaneous injection into the dorsal flank of the mice, and the grouped treatment was started when the tumor volume reached 200-300 mm^3.
General observation: Observation of animals: all live experimental animals to be observed; Observation time: twice a day; Observation items: including but not limited to general performance, behavioral status, eyes, mouth, nose and mouth, ears, hair, stool, urine, genitalia and other toxic symptoms; If abnormalities are observed, provide a detailed description.
Animal assay: all viable experimental animals scheduled for assay; Assay time: All animals were weighed before the modeling for test grouping. After modeling, the mice were weighed once every 2 days, and the weight change of the mice was recorded in real time. Effective criteria: tumor volume (TV), relative tumor volume (RTV) and relative tumor growth rate of subcutaneously implanted tumor model. […] The calculation formula of tumor volume (TV) was: TV (mm^3) = a×b2×0.5, where a and b were the long diameter and short diameter, respectively.
The evaluation index for anti-tumor activity was the relative tumor growth rate T/C (%), and the calculation formula was as follows: T/C(%) = TRTV/CRTV × 100%; [formula]
Where, TRTV is relative tumor volume of the treatment group; CRTV is relative tumor volume of the negative control group. Therapeutic evaluation criteria: T/C (%)> 60 is considered ineffective; T/C (%) ≤ 60, and P < 0.05 (through statistical analysis) is considered effective. Measurement of tumor weight and tumor inhibition rate (%): At the end of the treatment period, the animals were euthanize, tumor masses dissected and isolated, tumors weighed, and photographs took. The tumor inhibition rate (%) was calculated by the formula below: [formula]
All raw data within the facility were collected manually according to the experimental scheme and the relevant guidelines of the research institution, or gathered by using a data acquisition system. Manually collected data can be transcribed into software such as Excel for analysis and reporting. The data from each group were quantitative, and the experimental data for each group of animals in the tables were expressed as mean ± standard deviation (Mean ± SD). In the figures, the experimental data ware described as mean ± standard error of the mean (Mean ± SEM). Statistical analysis, including t-tests and survival analysis, was performed by using the software such as EXCEL and GraphPad Prism.
After 24 days of administration, the tumor-bearing mice were anesthetized and euthanized. The tumor tissues were dissected, weighed, and photographed, and the tumor inhibition rate was calculated.

breast cancer MDA-MB-436 [2] = tested on: breast cancer MDA-MB-436; set-up: species or system NOD/SCID mice; conditions: mouse, in vivo
gastric cancer PDX model = experiment: In-vivo pharmacodynamic study on PDX gastric cancer mice model; conditions: Fig. 3
Procedure: Experimental procedure: Tumor tissues from gastric cancer patients were used to establish a stable passaged tumor-bearing mice model. In this study, tumor fragments from mice that had been stably passaged three times were used for subcutaneous inoculation. Eight groups were divided for the experiment, with 6 mice in each group. The negative control group (Control) received normal saline at 0.2 mL per mice per administration, given orally once per day; the carboplatin control group (Carboplatin, Car) received 20 mg/kg at 0.2 mL per mice per administration, administered via intraperitoneal injection once every 7 days.

`[2H]C([2H])([2H])C([2H])([2H])c1cc2ncc(CN3CC=C(c4ccc(C(=O)NC)nc4)CC3)cc2[nH]c1=O` [Compound 6, 1'-((7-(ethyl-d5)-6-oxo-5,6-dihydro-1,5-naphthyridin-3-yl)methyl)-N-methyl-1',2',3',6'-tetrahy dro-[3,4'-bipyridine]-6-carboxamide] was tested, and the RTV (breast cancer MDA-MB-436 [1]; 0.03 mg/kg orally once daily) was 2.7, the “Tumor volume T/C%” value (breast cancer MDA-MB-436 [1]; 0.03 mg/kg orally once daily) was 40.8% and the “Tumor weight (g) X±SD” value (breast cancer MDA-MB-436 [1]; 0.03 mg/kg orally once daily) was 1.09 ± 0.29 g. The “Body weight (g) X±SD End” value (breast cancer MDA-MB-436 [1]; 0.03 mg/kg orally once daily) was 21.6 ± 0.7 g, the “Tumor volume (mm^3) X±SD End” value (breast cancer MDA-MB-436 [1]; 0.03 mg/kg orally once daily) was 739.4±308.7 mm^3 and the “Body weight (g) X±SD Start” value (breast cancer MDA-MB-436 [1]; 0.03 mg/kg orally once daily) was 22.6 ± 0.7 g. The “Tumor volume (mm^3) X±SD Start” value (breast cancer MDA-MB-436 [1]; 0.03 mg/kg orally once daily) was 275.0±68.1 mm^3, the RTV (breast cancer MDA-MB-436 [1]; 0.1 mg/kg orally once daily) was 0.8 and the “Tumor volume T/C%” value (breast cancer MDA-MB-436 [1]; 0.1 mg/kg orally once daily) was 12.6%. For the same molecule, the “Tumor weight (g) X±SD” value (breast cancer MDA-MB-436 [1]; 0.1 mg/kg orally once daily) was 0.29 ± 0.09 g, the “Body weight (g) X±SD End” value (breast cancer MDA-MB-436 [1]; 0.1 mg/kg orally once daily) was 21.6 ± 0.7 g and the “Tumor volume (mm^3) X±SD End” value (breast cancer MDA-MB-436 [1]; 0.1 mg/kg orally once daily) was 228.0±75.9 mm^3. For the same molecule, the “Body weight (g) X±SD Start” value (breast cancer MDA-MB-436 [1]; 0.1 mg/kg orally once daily) was 22.3 ± 1.0 g, the “Tumor volume (mm^3) X±SD Start” value (breast cancer MDA-MB-436 [1]; 0.1 mg/kg orally once daily) was 274.7±73.8 mm^3 and the RTV (breast cancer MDA-MB-436 [1]; 0.3 mg/kg orally once daily) was 0.3. For the same molecule, the “Tumor volume T/C%” value (breast cancer MDA-MB-436 [1]; 0.3 mg/kg orally once daily) was 3.8%, the “Tumor weight (g) X±SD” value (breast cancer MDA-MB-436 [1]; 0.3 mg/kg orally once daily) was 0.09 ± 0.08 g and the “complete tumor regression (mice out of 6)” value (breast cancer MDA-MB-436 [1]; 0.3 mg/kg orally once daily, at the end of treatment) was 2/6. For the same molecule, the “Body weight (g) X±SD End” value (breast cancer MDA-MB-436 [1]; 0.3 mg/kg orally once daily) was 22.0 ± 0.9 g, the “Tumor volume (mm^3) X±SD End” value (breast cancer MDA-MB-436 [1]; 0.3 mg/kg orally once daily) was 71.0±62.5 mm^3 and the “Body weight (g) X±SD Start” value (breast cancer MDA-MB-436 [1]; 0.3 mg/kg orally once daily) was 22.3 ± 0.8 g. For the same molecule, the “Tumor volume (mm^3) X±SD Start” value (breast cancer MDA-MB-436 [1]; 0.3 mg/kg orally once daily) was 281.9±67.4 mm^3, the “anti-tumor efficacy in the model of large-volume tumors” value (breast cancer MDA-MB-436 [2]) was “complete regression of tumors” and the “rate of tumor regression compared to the compounds 1 and 21” value (breast cancer MDA-MB-436 [2]) was “faster rate of tumor regression”. The “tumor growth in gastric cancer PDX model” value (gastric cancer PDX model; 3 mg/kg p.o once per day combined with carboplatin 20 mg/kg i.p once per 7 days) was “significantly inhibit tumor growth” and the “inhibitory effect on the gastric cancer PDX model” value (gastric cancer PDX model; 0.3, 1, 3 mg/kg p.o once per day combined with carboplatin 20 mg/kg i.p once per 7 days) was “dose-dependent inhibitory effect”.
